The text below walks through data of US5629285A, “Inhibitors of TNF-α secretion” (Immunex Corporation, priority 1996, dated 1997).

Series [1] relates to serum TNF-α. Description: In vivo inhibition of TACE: LPS-induced serum TNF levels, 500 μg compound s.c. The conditions noted are these: for Serum TNF-α level: 500 μg s.c. with 400 μg LPS i.v., serum 2 hours after LPS, pooled from two mice, Saline/DMSO control 157. More on the design: species or system Balb/c mice. The procedure:
Female Balb/c mice (18-20 g) were injected i.v. with 400 μg of LPS. Simultaneously, the mice were injected subcutaneously with 500 μg of Compound A or Compound 1 in 0.5 ml of saline containing 0.02% DMSO. Control mice received LPS intravenously and saline/DMSO subcutaneously. Two hours following the LPS injection, serum was obtained and pooled from two mice in each treatment group.
In a similar manner to the procedure described above, mice were injected i.v. with 400 μg LPS. Simultaneously, the mice were injected subcutaneously with 500 μg Compound 1 in 0.5 ml saline containing 0.02% DMSO. Two hours later, serum was obtained and pooled. TNF-α levels were determined by ELISA.

Series [2] relates to serum TNF-α. Description: In vivo inhibition of TACE: LPS-induced serum TNF levels, 250 μg compound s.c. More on the design: species or system Balb/c mice. The conditions noted are these: 2 hours; for serum TNF-α, mean optical density (OD) in the ELISA: 250 μg s.c. in saline/DMSO with 450 μg LPS i.v., three mice, LPS + Saline + DMSO 0.268 ± 0.040, background OD 0.162±0.003; for effect on serum TNF-α levels in LPS-stimulated mice: 250 μg s.c., 450 μg LPS i.v. On the procedure:
Female Balb/c mice (18-20 g) were injected i.v. with 450 μg of LPS. Simultaneously, the mice were injected subcutaneously with 250 μg of Compound A or Compound 1 in 0.25 ml of saline containing 0.02% DMSO. Control mice received LPS intravenously and saline/DMSO subcutaneously. Two hours following the LPS injection, serum was obtained from three mice in each treatment group. TNF-α levels were determined by ELISA. The results are expressed as the mean optical density (OD) obtained in the ELISA from each treatment group, and are shown in Table V. The background OD of the control sample was 0.162±0.003.

A further series addresses purified TACE (Homo sapiens, UniProt P78536). Nature of the series: Serum stability in normal mouse serum, read out as inhibitory efficacy against purified TACE. The conditions noted are these: 50 μM in normal mouse serum, 37° C., after 40 minutes. The series is classed as in vitro ADME. The procedure:
Each of Compound 1 and Compound A was diluted to 50 μM in normal mouse serum and incubated at 37° C. At various times, aliquots were withdrawn, diluted 100-fold into ice-cold PBS, and tested for inhibitory, efficacy against purified TACE.

The subject of a further series is TNF-α secretion. Description: Inhibition of TNF-α release by anti-CD3 + PMA stimulated peripheral blood T-cells (ELISA). Type of series: cell-based, human. Set-up: key to TNF-α (pg/ml), 3 Hrs.: .dagger.: undetectable. The procedure:
(§1) Human peripheral blood T-cells were purified from peripheral blood mononuclear cells by rosetting with 2-aminoethylisothiouronium bromide hydrobromide-treated sheep erythrocytes. After hypotonic lysis of sheep erythrocytes, monocytes were depleted by plastic adherence for one hour at 37° C. The peripheral […] T-cells were stimulated with anti-CD3 antibody (OKT3) which was immobilized on the culture wells at 10 μg/ml in PBS plus […] of the phorbol ester, PMA. Culture medium comprised RPMI 1640 medium containing 10% fetal bovine serum, 50 U/ml penicillin, and 50 μg/ml streptomycin. The stimulation was performed in the presence or absence of the inhibitor Compound 1 (200 μM), and TNF-α in the medium was assayed by ELISA.

A further series relates to TNF-β secretion. Nature of the series: TNF-β production by anti-CD3 + PMA stimulated peripheral blood T-cells. Set-up: key to TNF-β (pg/ml), 3 Hrs.: .dagger.: undetectable. The series is classed as cell-based, human. On the procedure: [The source words this procedure for another target and reports this target under the same test.] as §1
In a further series the test system is IFN-γ secretion. Nature of the series: IFN-γ production by anti-CD3 + PMA stimulated peripheral blood T-cells. The series is classed as cell-based, human. On the procedure:
[The source words this procedure for another target and reports this target under the same test.] as §1

The test system of another series is cell surface TNF-α. Description: Cell surface TNF-α on PMA + ionomycin-stimulated human T-cell clone PL-1 (TNFR:Fc staining, FACS). Type of series: cell-based. The procedure: (§2) Detection of cell surface TNF-α was performed by staining with an Fc fusion protein consisting of an Fc portion of a human IgG1 molecule (IgGFc) coupled with an extracellular domain of TNF receptor (p80). Detection of cell surface ligands for 41BB and CD40 was performed by staining with analogous Fc fusion proteins consisting of IgGFc and extracellular domains of 41BB and CD40, respectively. […] TNFR:Fc and IL-4R:Fc fusion proteins are described in EP 0 464 533, incorporated herein by reference. The same general procedures used to construct the TNFR:Fc and IL-4R:Fc fusion molecules were utilized in the construction of the 41BB:Fc and CD40:Fc molecules. Fc fusion proteins bound to their respective cell-surface ligands were then detected with a biotinylated anti-human IgG1 followed by streptavidin-phycoerythrin. The intensity of staining was measured by a FACS (fluorescence activated cell sorting) scan flow cytometer.

The test system of the next series is 41BBL. Description: Cell surface 41BBL on PMA + ionomycin-stimulated human T-cell clone PL-1 (41BB:Fc staining, FACS). Type of series: cell-based. The procedure:
as §2

The test system of another series is CD40L. Nature of the series: Cell surface CD40L on PMA + ionomycin-stimulated human T-cell clone PL-1 (CD40:Fc staining, FACS). The series is classed as cell-based. On the procedure: as §2
Another series concerns IL-4. Nature of the series: Cell surface IL-4 on PMA + ionomycin-stimulated human T-cell clone PL-1 (IL-4R:Fc staining, negative control). The series is classed as cell-based. Conditions: + Compound 1 (10 without). The procedure: as §2
The mark [3] stands for this setting: with Compound 1 200 μM, 24 Hrs.
[4] abbreviates: with Compound 1 200 μM, 48 Hrs.

purified TACE, sequence (P78536 215-824): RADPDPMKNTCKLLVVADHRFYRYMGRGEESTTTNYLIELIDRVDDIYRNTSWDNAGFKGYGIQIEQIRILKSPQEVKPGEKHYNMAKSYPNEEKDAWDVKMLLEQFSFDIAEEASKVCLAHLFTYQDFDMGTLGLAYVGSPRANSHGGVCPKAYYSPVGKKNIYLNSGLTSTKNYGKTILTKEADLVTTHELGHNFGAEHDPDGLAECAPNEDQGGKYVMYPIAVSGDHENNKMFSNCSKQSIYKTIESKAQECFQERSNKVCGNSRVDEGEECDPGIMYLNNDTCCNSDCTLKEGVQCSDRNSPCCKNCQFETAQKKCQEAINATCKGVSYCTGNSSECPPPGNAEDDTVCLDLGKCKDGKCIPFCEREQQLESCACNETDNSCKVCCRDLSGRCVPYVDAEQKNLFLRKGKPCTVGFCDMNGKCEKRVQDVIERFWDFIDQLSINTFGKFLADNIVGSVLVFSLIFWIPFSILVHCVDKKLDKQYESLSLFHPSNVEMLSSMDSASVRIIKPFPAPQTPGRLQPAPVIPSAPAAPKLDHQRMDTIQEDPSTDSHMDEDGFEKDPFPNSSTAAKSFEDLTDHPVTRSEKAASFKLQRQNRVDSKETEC

`CC(C)CC(CC(=O)NO)C(=O)N[C@@H](Cc1ccc2ccccc2c1)C(=O)N[C@@H](C)C(N)=O` (stereo partly drawn) [Compound A, N-{D,L-2-(hydroxyaminocarbonyl)methyl-4-methylpentanoyl}L-3-(2'naphthyl)-a lanyl-L-alanine amide, reference compound]: the “Serum TNF-α level” value with serum TNF-α [1] came to 65 pg/mL. For the same compound, in the series on serum TNF-α [1] (500 μg s.c., 400 μg LPS i.v., 2 hours), the “reduction of serum TNF-α levels as compared to the saline/DMSO control” value is “approximately 60%”. Besides, in the series with serum TNF-α [2], the “serum TNF-α, mean optical density (OD) in the ELISA” value is 0.299 ± 0.023 OD and the “effect on serum TNF-α levels in LPS-stimulated mice” value was “no effect”. Further, the “decrease in inhibitory effect against purified TACE, as loss in concentration of the compound” value at purified TACE is 3-4 fold.
Consider `CC(C)CC(CC(=O)NO)C(=O)N[C@@H](Cc1ccc2ccccc2c1)C(=O)N[C@@H](C)C(=O)NCCN` (stereo partly drawn) [Compound 1, N-{D,L-2-(hydroxyaminocarbonyl)methyl-4-methylpentanoyl}-L-3-(2'-naphthyl) alanyl-L-alanine, 2-aminoethyl amide], for which the “inhibition of TNF-α release” value in the series on TNF-α secretion (200 μM, 48 hours) was 63%. Besides, in the series with TNF-α secretion (200 μM, after 3 hours, 100 pg/ml without compound), the “TNF-α in the medium” value was “no detectable”. For the same compound, in the series with TNF-α secretion (with Compound 1 200 μM, medium of stimulated peripheral blood T cells, 3 Hrs.), the “TNF-α (pg/ml), 3 Hrs.” value is “.dagger”. Besides, the “TNF-α (pg/ml), 24 Hrs.” value in the series with TNF-α secretion (with Compound 1 200 μM, medium of stimulated peripheral blood T cells, 24 Hrs.) was 100 pg/mL. Further, the “TNF-α (pg/ml), 48 Hrs.” value in the series with TNF-α secretion (with Compound 1 200 μM, medium of stimulated peripheral blood T cells, 48 Hrs.) came out at 300 pg/mL. Also, the “inhibitory effect on the release of TNF-β” value in the series with TNF-β secretion (200 μM, 24 and 48 hours) was “no inhibitory effect”. For the same compound, in the series with TNF-β secretion (with Compound 1 200 μM, 3 Hrs.), the “TNF-β (pg/ml), 3 Hrs.” value is “.dagger”. In the series with TNF-β secretion (setting [3]), the “TNF-β (pg/ml), 24 Hrs.” value is 160 pg/mL. For the same compound, the “TNF-β (pg/ml), 48 Hrs.” value in the series with TNF-β secretion (setting [4]) stood at 1050 pg/mL. Further, in the series with IFN-γ secretion (200 μM, 24 and 48 hours), the “inhibitory effect on the release of interferon-γ” value is recorded as “no inhibitory effect”. For the same compound, in the series with IFN-γ secretion (with Compound 1 200 μM, 3 Hrs.), the “IFN-γ (ELISA OD), 3 Hrs.” value stood at 0.2 ELISA OD. The “IFN-γ (ELISA OD), 24 Hrs.” value in the series on IFN-γ secretion (setting [3]) turned out to be 0.9 ELISA OD. Further, the “IFN-γ (ELISA OD), 48 Hrs.” value in the series with IFN-γ secretion (setting [4]) amounted to 1.08 ELISA OD. For the same compound, the “cell surface TNF-α (MFI)” value in the series on cell surface TNF-α (4h after stimulation, + Compound 1 (83 without)) is 3040 MFI, arbitrary units; in the series with cell surface TNF-α (18h after stimulation, + Compound 1 (7 without)), 616 MFI, arbitrary units. Moreover, the “increase in TNFR:Fc binding” value in the series on cell surface TNF-α (18 hours of stimulation, presence vs absence of Compound 1) was 100 fold. The “cell surface 41BBL (MFI)” value was 344 MFI, arbitrary units in the series with 41BBL (4h after stimulation, + Compound 1 (428 without)) and 9 MFI, arbitrary units with 41BBL (18h after stimulation, + Compound 1 (5 without)). The “enhancement of 41BB:Fc binding” value with 41BBL (18 hours of stimulation) was “approximately 2 fold”. In addition, in the series on 41BBL (four hours of stimulation), the “increase on 41BB:Fc binding” value is given as “no increase”. For the same compound, the “cell surface CD40L (MFI)” value in the series with CD40L (4h after stimulation, + Compound 1 (107 without)) was 107 MFI, arbitrary units; with CD40L (18h after stimulation, + Compound 1 (19 without)), 46 MFI, arbitrary units. The “enhancement of CD40:Fc binding” value in the series on CD40L (18 hours of stimulation) is “approximately 2 fold”. Further, in the series on CD40L (four hours of stimulation), the “increase on CD40:Fc binding” value is “no increase”. Also, the “cell surface IL-4 (MFI)” value is given as 10 MFI, arbitrary units in the series with IL-4 (4h after stimulation) and 10 MFI, arbitrary units in the series with IL-4 (18h after stimulation). Also, the “Serum TNF-α level” value in the series with serum TNF-α [1] is given as “undetectable”. In the series with serum TNF-α [1] (25 mg/kg, from Tables III and IV), the “reduction of serum TNF-α levels in a murine model of LPS-induced sepsis syndrome” value is given as “at least 80%”. Moreover, the “LPS-induced serum TNF level” value with serum TNF-α [1] (Experiment No. 1, 500 μg s.c., 400 μg LPS i.v., 2 hours, LPS only 1696, LPS + Saline 1268) is 301 pg/mL; with serum TNF-α [1] (Experiment No. 2, 500 μg s.c., 400 μg LPS i.v., 2 hours, LPS only 2527, LPS + Saline 1768) it was 269 pg/mL; with serum TNF-α [1] (Experiment No. 3, 500 μg s.c., 400 μg LPS i.v., 2 hours, LPS only 1833, LPS + Saline 1732), 281 pg/mL. Further, the “reduction of serum TNF-α levels as compared to LPS only” value in the series on serum TNF-α [1] (experiment 1, 500 μg s.c.) is 82%; in the series on serum TNF-α [1] (experiment 2, 500 μg s.c.) it was 89%; in the series on serum TNF-α [1] (experiment 3, 500 μg s.c.), 85%. Besides, the “reduction of serum TNF-α levels as compared to LPS+saline” value with serum TNF-α [1] (experiment 1, 500 μg s.c.) is on record as 76%; with serum TNF-α [1] (experiment 2, 500 μg s.c.), 85%; in the series on serum TNF-α [1] (experiment 3, 500 μg s.c.), 84%. Besides, the “overall reduction of serum TNF-α levels as compared to LPS only” value with serum TNF-α [1] (experiments 1-3, 500 μg s.c.) stood at 85.4±2.98%. Also, the “serum TNF-α, mean optical density (OD) in the ELISA” value with serum TNF-α [2] came to 0.147 ± 0.004 OD. Moreover, the “effect on serum TNF-α levels in LPS-stimulated mice” value with serum TNF-α [2] was “complete inhibition”. Also, the “decrease in inhibitory effect against purified TACE, as loss in concentration of the compound” value on purified TACE is “no decrease”.
